# Results from article PMC10376420, “Antioxidant, Antidiabetic, and Anti-Obesity Properties of Apple Pulp Extracts (Malus domestica Bork): A Comparative Study of 15 Local and Commercial Cultivars from Spain” (Biology, 2023).
# Target: T1, α-glucosidase from Saccharomyces cerevisiae
# T1 construct: gene MAL12
# Assay: pNPG hydrolysis, absorbance […] nm
# Format: biochemical
# Settings: substrate pNPG (50 uL of 3 mM in 200 uL), 37 °C
structure (smiles),measurement,value
O=c1c(O)c(-c2ccc(O)c(O)c2)oc2cc(O)cc(O)c12 [Quercetin],IC50,2.98 ± 0.40 µg/mL
